# Like-named read-outs stand apart in the source and are kept apart here.
# Columns and labels:
# [1] = 1H NMR titration, binding of nitrate; conditions: 25° C.
# Description: Anion binding with four amides, i.e., L1mer-L4mer, was studied in the mixed solvents of CD3CN/CDCl3 (1/9, v/v) by titrating an amide host with 0 to 5 equivalents of tetrabutylammonium (n-Bu4N^+) salt of the corresponding anion. The binding of chloride, bromide, iodide, and nitrate was examined with the four amides in CDCl3 containing 10% CD3CN. The titration data were collected by monitoring the changes in chemical shifts of the backbone amide protons and the inner aromatic protons with varying ratios of the anion guests. Job plots indicate that these linear oligoamides and their anion guests bind in a 1:1 stoichiometry.
# The binding of anions by macrocycle 7c was examined in CH3CN/CHCl3 (6/4, v/v) and in DMSO by titrating with various equivalents of the salts of chloride, iodide. nitrate, and dihydrogen phosphate, with tetrabutylammonium (n-Bu4N^+) being the counterion ion. Following the changes in the chemical shifts of backbone amide protons and “inner” aromatic protons allowed the determination of binding constants.
# (§1) ^1H NMR titration methods. Titrations of c5a and c5b with anions as their tetra-n-butylammonium (TBA), tetra-ethylammonium (TEA) and tetra-methylammonium (TMA) salts were carried out by ^1H NMR (400 MHz) at 25° C. 0.4 mL of corresponding hosts solutions were prepared in the rubber-cap NMR tubes. Aliquots of concentrated guest solution containing hosts were added into the NMR tubes using 20 microliter pipette. An initial ^1H NMR spectrum was collected and additional spectra were obtained after each injection of guest solution. All titration ^1H NMR spectra were stacked together and the chemical shifts of the internal aromatic CH proton were then fitted to 1:1 binding model using BindFit v0.5 (http://app.supramolecular.org/bindfit/) to evaluate binding constants to anions.
# [2] = 1H NMR titration, binding of BF4^−; conditions: DMSO-d6:CDCl3 (15:85, v/v), 25° C., NMR titration (protons a and b)
# Experimental: as §1
# [3] = 1H NMR titration, binding of IO4^−; conditions: DMSO-d6:CDCl3 (15:85, v/v), 25° C., NMR titration (protons a and b)
# Experimental: as §1
# [4] = Isothermal titration calorimetry (ITC), Cl^−; type: binding; conditions: 25° C.
# Experimental: (§2) Isothermal titration calorimetry (ITC) experiments were performed using a MicroCal VP-ITC. ITC experiments were conducted by adding ~1.5 mL of a solution containing c5a to the sample cell. Followed by titrating 10 μL aliquots of a solution containing the corresponding TBA·X salt (~10-14× concentration of c5a solution) from the syringe into the sample cell. Heats of dilution were obtained by titrating 10 μL aliquots of the TBA·X solution from the syringe into the sample cell in the absence of c5a. The heats of dilution were subtracted from the raw data. ITC data processing and curve fitting was done using the Origin program (MicroCal).
# (§3) Two-step competition ITC experiments for determining the Ka of c5a and iodide. In CH3CN:CHCl3 (5:95, v/v), the binding affinity of c5a for I^− was too high to be determined with direct NMR or ITC titration. Instead, two-step competition ITC experiments with Cl^− as the competitor were performed.
# [5] = Isothermal titration calorimetry (ITC), NO3^−; type: binding; conditions: DMSO:CHCl3 (5:95, v/v), 25° C.
# Experimental: as §2, §3
# [6] = Isothermal titration calorimetry (ITC), BF4^−; type: binding; conditions: DMSO:CHCl3 (5:95, v/v), 25° C.
# Experimental: as §2, §3
# [7] = Isothermal titration calorimetry (ITC), ClO4^−; type: binding; conditions: 25° C.
# Experimental: as §2, §3
# [8] = Isothermal titration calorimetry (ITC), PF6^−; type: binding; conditions: 25° C.
# Experimental: as §2, §3
# [9] = EC50 of halide transport, HPTS assay; type: biochemical; conditions: POPC LUVs, entrapped HPTS
# Experimental: The time course of the emission intensity of intravesicular HPTS, It, was obtained first by ratiometric analysis (Rt=It,450/It,405), followed by normalization according to equation (S1),
# where R0=Rt at t=100 s, before the addition of c5a; R∞=Rt at t=350 s upon the addition of Triton X-100. Normalized intensity ratio at 300 s just before addition of Triton X-100 was defined as the transmembrane activity (Y) which was analyzed with the Hill equation (S2) to give effective concentration EC50 and the Hill coefficient n, (S2)
# where Y0 is Y in absence of carrier, […], and c is the carrier concentration in a cuvette.
# [10] = Ion transport with different MCl salts, HPTS assay; type: biochemical; conditions: POPC LUVs, 100 mM MCl, pH 7.0, 25° C.
# Experimental: Inside vesicles: 10 mM HEPES, 100 mM MCI (M=Li, Na, K, Rb), 1 mM HPTS, pH 7.0. Outside vesicles: 10 mM HEPES, 100 mM MCI, pH 7.0. A base pulse (20 μL of 0.5 M NaOH) was applied to each vesicular solution at 50 s, followed by adding 20 μL of c5a in DMF at 100 s. For each group, the vesicles were lysed after 200 s by adding 0.1% Triton X-100 to obtain the maximum emission intensity for normalization. The emission intensities of the intravesicular HPTS at 510 nm, I405 and I450, corresponding to two excitation wavelengths (405 and 450 nm) were monitored simultaneously, based on which the normalized intensity ratios (I405/I450) of the two emision intensities were obtained.
# [11] = Carrier vs channel chloride transport with DPPC LUVs; type: biochemical; conditions: HPTS
# Experimental: Differentiation of carrier vs channel chloride transport with DPPC LUVs. An aliquot (20 μL) DPPC LUVs (intravesicular components: 10 mM HEPES, 100 mM NaCl, pH 7.0) was added to 1.98 mL of a buffer comprised of 10 mM HEPES, 100 mM NaCl, pH 7, followed by incubating at 45° C. for 3 min. An aliquot (20 μL) of c5a (0.2 mM) in DMF was added to the LUVs, with the final concentration of c5a being […], and the solution was incubated for an additional 3 min at 45° C. LUVs with c5a were incubated either at 45° C. or 25° C. for 3 minutes.
smiles,measurement,setting,value
CCCCCCCCOCC(C)(C)C(=O)Nc1ccc2cc1C(=O)Nc1ccc(NC(=O)C(C)(C)COCCCCCCCC)c(c1)C(=O)Nc1ccc(NC(=O)C(C)(C)COCCCCCCCC)c(c1)C(=O)Nc1ccc(NC(=O)C(C)(C)COCCCCCCCC)c(c1)C(=O)Nc1ccc(NC(=O)C(C)(C)COCCCCCCCC)c(c1)C(=O)N2 [c5a],"Association constant Ka, 1:1 complex with NO3^−","[1]; CD3CN:CDCl3 (80:20, v/v), NMR titration",>10^6 M^−1
same,"Association constant Ka, 1:1 complex with NO3^−","[1]; DMSO-d6:CDCl3 (15:85, v/v), NMR titration (protons a and b)",(1.57 ± 0.13) × 10^5 M^−1
same,"Association constant Ka, 1:1 complex with BF4^−",[2],(4.73 ± 0.38) × 10^4 M^−1
same,"Association constant Ka, 1:1 complex with IO4^−",[3],(1.18 ± 0.08) × 10^4 M^−1
same,"Association constant Ka, 1:1 complex with Cl^−","[4]; CH3CN:CHCl3 (5:95, v/v)",(2.34 ± 0.24) × 10^6 M^−1
same,"Association constant Ka, 1:1 complex with Cl^−","[4]; DMSO:CHCl3 (5:95, v/v)",(1.60 ± 0.10) × 10^4 M^−1
same,"Association constant Ka, 1:1 complex with NO3^−",[5],(1.30 ± 0.10) × 10^6 M^−1
same,"Association constant Ka, 1:1 complex with BF4^−",[6],(8.70 ± 0.40) × 10^5 M^−1
same,"Association constant Ka, 1:1 complex with ClO4^−","[7]; DMSO-d6:CDCl3 (15:85, v/v) column, ITC measurements (footnote d)",(1.90 ± 0.02) × 10^4 ^d M^−1
same,"Association constant Ka, 1:1 complex with ClO4^−","[7]; DMSO:CHCl3 (5:95, v/v), ITC",(4.50 ± 0.50) × 10^5 M^−1
same,"Association constant Ka, 1:1 complex with PF6^−","[8]; CH3CN:CHCl3 (5:95, v/v)",(1.23 ± 0.17) × 10^7 M^−1
same,"Association constant Ka, 1:1 complex with PF6^−","[8]; DMSO:CHCl3 (5:95, v/v)",(2.80 ± 0.20) × 10^4 M^−1
same,EC50,"[9]; c5a 0.05 to 10 μM, base pulse, read-out: EC50 for the transport of Br^−",4.11 µM
same,EC50,"[9]; c5a 0.05 to 10 μM, base pulse, read-out: EC50 for the transport of Cl^−",0.31 µM
same,EC50,"[9]; c5a up to 10 μM, too large to be measured, read-out: EC50 for the transport of I^−",> 10 µM
same,"transmembrane ion transport in the presence of LiCl, NaCl, KCl, or RbCl",[10],insignificant difference
same,chloride transport into DPPC LUVs,"[11]; 25° C. (gel phase), c5a pre-incubated at 45° C.",completely prohibited
same,chloride transport into DPPC LUVs,[11]; 45° C. (fluid phase),enhanced halide transport

# — patent publication US20260272879A1, “ANION-BINDING AROMATIC OLIGOAMIDE MACROCYCLES AND METHODS OF MAKING AND USING SAME” (The Research Foundation for The State University of New York, priority 2023, published 2026)
